Data as given in patent publication US11465981B2, “Heterocyclic compounds as immunomodulators” (Incyte Corporation, priority 2016, dated 2022).

target: PD-1/PD-L1 protein/protein interaction (Homo sapiens (Human), UniProt Q9NZQ7); experiment: PD-1/PD-L1 Homogeneous Time-Resolved Fluorescence (HTRF) Binding Assay; settings: recombinant human PD-1 (Fc tag) 3 nM, human PD-L1 (His-tag) 10 nM, 25° C., PBS pH 7.4
Experimental: Example A. PD-1/PD-L1 Homogeneous Time-Resolved Fluorescence (HTRF) Binding Assay
The assays were conducted in a standard black 384-well polystyrene plate with a final volume of 20 μL. Inhibitors were first serially diluted in DMSO and then added to the plate wells before the addition of other reaction components. The final concentration of DMSO in the assay was 1%. The assays were carried out at 25° C. in the PBS buffer (pH 7.4) with 0.05% Tween-20 and 0.1% BSA. Recombinant human PD-L1 protein (19-238) with a His-tag at the C-terminus was purchased from AcroBiosystems (PD1-H5229). Recombinant human PD-1 protein (25-167) with Fc tag at the C-terminus was also purchased from AcroBiosystems (PD1-H5257). PD-L1 and PD-1 proteins were diluted in the assay buffer and 10 μL was added to the plate well. Plates were centrifuged and proteins were preincubated with inhibitors for 40 minutes. The incubation was followed by the addition of 10 μL of HTRF detection buffer supplemented with Europium cryptate-labeled anti-human IgG (PerkinElmer-AD0212) specific for Fc and anti-His antibody conjugated to SureLight®-Allophycocyanin (APC, PerkinElmer-AD0059H). After centrifugation, the plate was incubated at 25° C. for 60 min. before reading on a PHERAstar FS plate reader (665 nm/620 nm ratio). Final concentrations in the assay were […], 10 nM PD-L1, 1 nM europium anti-human IgG and 20 nM anti-His-Allophycocyanin. IC50 determination was performed by fitting the curve of percent control activity versus the log of the inhibitor concentration using the GraphPad Prism 5.0 software.

Sequence of PD-1/PD-L1 protein/protein interaction (Q9NZQ7 19-238): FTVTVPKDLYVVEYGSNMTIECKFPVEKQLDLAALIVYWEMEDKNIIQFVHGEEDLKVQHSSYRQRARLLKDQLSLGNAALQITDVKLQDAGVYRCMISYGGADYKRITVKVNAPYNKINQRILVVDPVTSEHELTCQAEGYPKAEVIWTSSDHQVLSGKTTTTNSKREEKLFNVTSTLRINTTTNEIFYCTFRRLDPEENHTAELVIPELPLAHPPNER

| IC50 [nM] | SMILES |
| --- | --- |
| ≤ 10 | Cc1c(NC(=O)c2ccc(CN3CCC(C(=O)O)CC3)cn2)cccc1-c1cccc(NC(=O)c2ccc(CN3CC[C@@H](O)C3)cn2)c1Cl [Example 9, (R)-1-((6-(2′-chloro-3′-(5-((3-hydroxypyrrolidin-1-yl)methyl)picolinamido)-2-methylbiphenyl-3-ylcarbamoyl)pyridin-3-yl)methyl)piperidine-4-carboxylic Acid] |
| ≤ 10 | O=C(Nc1cccc(-c2cccc(NC(=O)c3nc4c(s3)CNCC4)c2F)c1Cl)c1ccc(CN2CCCC[C@H]2C(=O)O)cn1 [Example 11, (S)-1-((6-((2-chloro-2′-fluoro-3′-(4,5,6,7-tetrahydrothiazolo[5,4-c]pyridine-2-carboxamido)-[1,1′-biphenyl]-3-yl)carbamoyl)pyridin-3-yl)methyl)piperidine-2-carboxylic Acid] |
| ≤ 10 | Cc1cc(C(=O)Nc2cccc(-c3cccc(NC(=O)c4ccc(CN5CCCC5)cn4)c3Cl)c2C)ncc1CN1CCCC[C@H]1C(=O)O [Example 12, (S)-1-((6-((2′-chloro-2-methyl-3′-(5-(pyrrolidin-1-ylmethyl)picolinamido)-[1,1′-biphenyl]-3-yl)carbamoyl)-4-methylpyridin-3-yl)methyl)piperidine-2-carboxylic acid] |
| ≤ 10 | Cc1c(NC(=O)c2ccc(CN3CC(C(=O)O)C3)cn2)cccc1-c1cccc(NC(=O)c2ccc(CN3CC[C@@H](O)C3)cn2)c1Cl [Example 10, (R)-1-((6-(2′-chloro-3′-(5-((3-hydroxypyrrolidin-1-yl)methyl)picolinamido)-2-methylbiphenyl-3-ylcarbamoyl)pyridin-3-yl)methyl)azetidine-3-carboxylic Acid] |
| ≤ 10 | COc1ccnc(C(=O)Nc2cccc(-c3cccc(NC(=O)c4cc(C)c(CN5CCCC[C@H]5C(=O)O)cn4)c3Cl)c2C)c1 [Example 13, (S)-1-((6-((2-chloro-3′-(4-methoxypicolinamido)-2′-methyl-[1,1′-biphenyl]-3-yl)carbamoyl)-4-methylpyridin-3-yl)methyl)piperidine-2-carboxylic Acid] |

Further lines, the compound ahead of its results:

| SMILES | IC50 [nM] |
| --- | --- |
| Cc1c(NC(=O)c2ccc(CN3CCCC[C@H]3C(=O)O)cn2)cccc1-c1cccc(NC(=O)c2ccc(CNCCO)cn2)c1Cl [Example 7, (S)-1-((6-(2′-chloro-3′-(5-((2-hydroxyethylamino)methyl)picolinamido)-2-methylbiphenyl-3-ylcarbamoyl)pyridin-3-yl)methyl)piperidine-2-carboxylic Acid] | ≤ 10 |
| Cc1c(NC(=O)c2ccc(CN3CCOC3=O)cn2)cccc1-c1cccc(NC(=O)c2ccc(CNCCO)cn2)c1Cl [Example 5, N-(2-chloro-2′-methyl-3′-(5-((2-oxooxazolidin-3-yl)methyl)picolinamido)biphenyl-3-yl)-5-((2-hydroxyethylamino)methyl)picolinamide] | ≤ 10 |
| Cc1c(NC(=O)c2ccc(CN3CC[C@H](C(=O)O)C3)cn2)cccc1-c1cccc(NC(=O)c2ccc(CN3CC[C@@H](O)C3)cn2)c1Cl [Example 8, (S)-1-((6-(2′-chloro-3′-(5-(((R)-3-hydroxypyrrolidin-1-yl)methyl)picolinamido)-2-methylbiphenyl-3-ylcarbamoyl)pyridin-3-yl)methyl)pyrrolidine-3-carboxylic Acid] | ≤ 10 |
| Cc1c(NC(=O)c2ccc(CN3CCN(C)C3=O)cn2)cccc1-c1cccc(NC(=O)c2ccc(CN3CC[C@@H](O)C3)cn2)c1Cl [Example 4, (R)—N-(2-chloro-2′-methyl-3′-(5-((3-methyl-2-oxoimidazolidin-1-yl)methyl)picolinamido)biphenyl-3-yl)-5-((3-hydroxypyrrolidin-1-yl)methyl)picolinamide] | ≤ 10 |
| Cc1c(NC(=O)c2ccc(CN3CCOC3=O)cn2)cccc1-c1cccc(NC(=O)c2ccc(CN3CC[C@@H](O)C3)cn2)c1Cl [Example 6, (R)—N-(2-chloro-2′-methyl-3′-(5-((2-oxooxazolidin-3-yl)methyl)picolinamido)biphenyl-3-yl)-5-((3-hydroxypyrrolidin-1-yl)methyl)picolinamide] | ≤ 10 |
| Cc1c(NC(=O)c2ccc(CNCCO)cn2)cccc1-c1cccc(NC(=O)c2ccc(CNCCO)cn2)c1Cl [Example 1, N,N′-(2-chloro-2′-methylbiphenyl-3,3′-diyl)bis(5-((2-hydroxyethylamino)methyl)picolinamide)] | ≤ 10 |
| Cc1c(NC(=O)c2ccc(CN3CCN(C)C3=O)cn2)cccc1-c1cccc(NC(=O)c2ccc(CNCCO)cn2)c1Cl [Example 3, N-(2-chloro-2′-methyl-3′-(5-((3-methyl-2-oxoimidazolidin-1-yl)methyl)picolinamido)biphenyl-3-yl)-5-((2-hydroxyethylamino)methyl)picolinamide] | ≤ 10 |
| Cc1c(NC(=O)c2ccc(CN3CCCC[C@H]3C(=O)O)cn2)cccc1-c1cccc(NC(=O)c2ccc(CN3CCCC[C@H]3C(=O)O)cn2)c1Cl [Example 2, (2S,2'S)-1,1′-(6,6′-(2-chloro-2′-methylbiphenyl-3,3′-diyl)bis(azanediyl)bis(oxomethylene)bis(pyridine-6,3-diyl))bis(methylene)dipiperidine-2-carboxylic Acid] | ≤ 10 |
